According to patent publication US20240381872A1, “SUBSTITUTED 2,3-DIHYDRO[1,3]THIAZOLO[4,5-B]PYRIDINES, SALTS THEREOF AND THEIR USE AS HERBICIDALLY ACTIVE SUBSTANCES” (BAYER AKTIENGESELLSCHAFT, priority 2021, published 2024):

Columns and labels:
Type in all cases: in vivo
[1] = tested on: Zea mays (ZEAMX); assay: Pre-emergence effects on crop plants, section D (Table D1); settings: visual grading after ca. 3 weeks
How it was run: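 Pre-emergence soil-surface spray, 320 g/ha or below, 600 l water/ha + 0.5% additive; WP/EC formulations; sandy loam; greenhouse; visual % damage vs untreated at ~3 wk.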

[2] = tested on: Glycine max (GLXMA); assay: Post-emergence effects on crop plants, section F (Table F4); settings: application rate 80 g/ha; for post-emergence activity against GLXMA in %: crop plant damage
How it was run: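 Percent damage was rated by eye roughly 3 weeks after treatment against untreated plants, where 0% = as control and 100% = died off. Spraying used WP or EC formulations plus 0.5% additive at 600 l water/ha, with rates of 320 g/ha or less. Plants were at the single-leaf stage, sown 2-3 weeks earlier in sandy loam under greenhouse conditions.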

[3] = tested on: Alopecurus myosuroides (ALOMY); assay: Herbicidal post-emergence action, section E (Table E2); settings: application rate 320 g/ha, assessed visually after ca. 3 weeks; for pest or weed control at 320 g/ha: Alopecurus myosuroides, post-emergence, 504 h, read-out: post-emergence activity against ALOMY in %
Text: (§1) Seeds of mono- and dicotyledonous weed plants and crop plants were sown, in plastic or organic planting pots, in sandy loam, covered with soil and grown in a greenhouse under controlled growth conditions. 2 to 3 weeks after sowing, the test plants were sprayed in the single-leaf stage. The compounds according to the invention, formulated in form of wettable powders (WP) or as emulsifiable concentrates (EC), were sprayed onto the green plant parts as aqueous suspension or emulsion, with the addition of 0.5% of an additive, at an application rate of 600 l of water/ha (converted). The test plants were placed in the greenhouse for ca. 3 weeks under optimum growth conditions, and then the effect of the preparations was assessed visually in comparison with untreated controls (herbicidal effect in percent (%): 100% effect=plants have died off, 0% effect=as control plants).

[4] = tested on: Polygonum convolvulus (POLCO); assay: Herbicidal pre-emergence action, section C (Table C7); settings: visual grading after ca. 3 weeks
How it was run: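 Pre-emergence greenhouse test: visual percent damage scored about 3 weeks after treatment, relative to untreated pots (100% = dead, 0% = no effect). Formulated compounds (WP or EC, plus 0.5% additive) were applied in 600 l water/ha to the covering soil over seeds sown in sandy loam.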

[5] = tested on: Amaranthus retroflexus (AMARE); assay: Herbicidal post-emergence action, section E (Table E3); settings: assessed visually after ca. 3 weeks; for pest or weed control at 320 g/ha / post-emergence activity against AMARE in %: application rate 320 g/ha
Text: as §1

[6] = tested on: Abutilon theophrasti (ABUTH); assay: Herbicidal pre-emergence action, section A (Table A1); settings: visual grading after ca. 3 weeks vs untreated controls
How it was run: (§2)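 Weeds sown in sandy loam, then WP or EC formulations applied pre-emergence to the soil surface as aqueous spray with 0.5% additive at 600 L water/ha. Pots kept in the greenhouse, and damage graded visually after ~3 weeks as % effect against untreated controls (100% = dead).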

[7] = tested on: Veronica persica (VERPE); assay: Herbicidal post-emergence action, section B (Table B10); settings: visual rating about 3 weeks after treatment vs untreated controls; for pest or weed control at 320 g/ha / pest or weed control at 1280 g/ha: Veronica persica, post-emergence, 504 h, read-out: post-emergence activity against VERPE in %
How it was run: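 Post-emergence greenhouse test: weeds sown in sandy loam, treated at one-leaf stage 2–3 weeks after sowing with WP or EC formulations sprayed as aqueous suspension/emulsion plus 0.5% additive at 600 L/ha. Activity rated visually versus untreated controls after about 3 weeks (100% = plants dead, 0% = like control).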

[8] = tested on: Matricaria inodora (MATIN); assay: Herbicidal pre-emergence action, section A (Table A6); settings: visual grading after ca. 3 weeks vs untreated controls
How it was run: as §2

[9] = Fallopia convolvulus, pre-emergence, 504 h, application rate 320 g/ha, read-out: pre-emergence activity against POLCO in %
[10] = Amaranthus retroflexus, post-emergence, 504 h, read-out: post-emergence activity against AMARE in %
[11] = Abutilon theophrasti, pre-emergence, 504 h, application rate 1280 g/ha, read-out: pre-emergence activity against ABUTH in %
[12] = Tripleurospermum inodorum, pre-emergence, 504 h, application rate 320 g/ha, read-out: pre-emergence activity against MATIN in %

Compound	pre-emergence activity against ZEAMX in % (crop plant damage) ([1]; application rate 80 g/ha) [%]	pest or weed control at 320 g/ha [3] [%]	pest or weed control at 320 g/ha [4, 9] [%]	pest or weed control at 320 g/ha [5, 10] [%]	pre-emergence activity against MATIN in % ([8]; application rate 320 g/ha) [%]	post-emergence activity against ALOMY in % [3] [%]	post-emergence activity against AMARE in % [5] [%]	pest or weed control at 320 g/ha [8, 12] [%]	pre-emergence activity against POLCO in % ([4]; application rate 320 g/ha) [%]	also measured
Fc1ccccc1-c1nc2c(cc1Br)SCN2 [Example I-001, 6-bromo-5-(2-fluorophenyl)-2,3-dihydro[1,3]thiazolo[4,5-b]pyridine]	10	90	80	80	–	–	–	–	–	percent crop plant damage at 80 g/ha ([2]; Glycine max, 504 h, read-out: post-emergence activity against GLXMA in %): 20%
Cc1cc2c(nc1-c1ccccc1F)NCS2 [Example I-007, 5-(2-fluorophenyl)-6-methyl-2,3-dihydro[1,3]thiazolo[4,5-b]pyridine]	–	90	80	–	–	–	–	–	–	pest or weed control at 1280 g/ha [6, 11]: 90%; pest or weed control at 320 g/ha ([7]; application rate 320 g/ha): 90%; pest or weed control at 1280 g/ha ([8]; Tripleurospermum inodorum, pre-emergence, 504 h, application rate 1280 g/ha, read-out: pre-emergence activity against MATIN in %): 90%; pest or weed control at 80 g/ha ([5]; Amaranthus retroflexus, post-emergence, 504 h, application rate 80 g/ha, read-out: post-emergence activity against AMARE in %): 80%
COC(=O)CCC(=O)N1CSc2cc(C)c(-c3ccccc3F)nc21 [Example I-010]	–	–	–	–	90	80	80	–	–	pre-emergence activity against ABUTH in % ([6]; application rate 1280 g/ha): 90%; post-emergence activity against VERPE in % ([7]; application rate 320 g/ha): 90%; post-emergence activity against GLXMA in % [2]: 0%; pre-emergence activity against POLCO in % ([4]; application rate 80 g/ha): 80%
Cc1cc2c(nc1-c1cccc(F)c1F)NCS2 [Example I-029, 5-(2,3-difluorophenyl)-6-methyl-2,3-dihydro[1,3]thiazolo[4,5-b]pyridine]	–	80	80	80	–	–	–	90	–	pest or weed control at 1280 g/ha [6, 11]: 90%; pest or weed control at 1280 g/ha ([7]; application rate 1280 g/ha): 90%
CCS(=O)(=O)N1CSc2cc(C)c(-c3ccccc3F)nc21 [Example I-060, 3-(ethylsulfonyl)-5-(2-fluorophenyl)-6-methyl-2,3-dihydro[1,3]thiazolo[4,5-b]pyridine]	20	90	–	90	–	–	–	90	–	pest or weed control at 320 g/ha ([6]; Abutilon theophrasti, pre-emergence, 504 h, application rate 320 g/ha, read-out: pre-emergence activity against ABUTH in %): 90%; pest or weed control at 320 g/ha ([7]; application rate 320 g/ha): 90%; pest or weed control at 80 g/ha ([4]; Fallopia convolvulus, pre-emergence, 504 h, application rate 80 g/ha, read-out: pre-emergence activity against POLCO in %): 80%
CCOCCS(=O)(=O)N1C[S+]([O-])c2cc(C)c(-c3ccccc3F)nc21 (centres unmarked) [Example I-127]	20	90	90	90	–	–	–	100	–	pest or weed control at 1280 g/ha ([7]; application rate 1280 g/ha): 90%
COCC1(C(=O)N2CSc3cc(C)c(-c4ccccc4F)nc32)CC(Cl)=NO1 (centres unmarked) [Example I-128]	0	–	–	–	100	90	90	–	90	pre-emergence activity against ABUTH in % ([6]; application rate 320 g/ha): 90%; post-emergence activity against VERPE in % ([7]; application rate 320 g/ha): 90%
Cc1ccccc1-c1nc2c(cc1C)SCN2C(=O)C1(C)CC(Cl)=NO1 (centres unmarked) [Example I-137]	20	–	–	–	90	80	80	–	80	pre-emergence activity against ABUTH in % ([6]; application rate 1280 g/ha): 100%; post-emergence activity against VERPE in % ([7]; application rate 1280 g/ha): 90%
CC1(C(=O)N2CSc3cc(Br)c(-c4ccccc4)nc32)CC(Cl)=NO1 (centres unmarked) [Example I-139]	–	–	–	–	–	80	90	–	80	pre-emergence activity against ABUTH in % ([6]; application rate 320 g/ha): 90%; post-emergence activity against VERPE in % ([7]; application rate 1280 g/ha): 90%; pre-emergence activity against ZEAMX in % (crop plant damage) ([1]; application rate 320 g/ha): 20%; post-emergence activity against GLXMA in % [2]: 20%; pre-emergence activity against MATIN in % ([8]; application rate 1280 g/ha): 90%
